Test results taken from patent US20190224189A1 (priority 2016, published 2019).

Assays:
[1] = tested on: non-small cell lung cancer with insertion mutation in exon 20; details: cited from earlier work
EGFR WT = EGFR WT (Homo sapiens, UniProt P00533); details: wild type EGFR and exon 20 insertion mutants, summary of Table 1
[2] = tested on: stage IV lung adenocarcinoma carrying Exon 20 ins; details: cited from earlier work

Chain of EGFR WT (P00533 668-1210 limits assumed): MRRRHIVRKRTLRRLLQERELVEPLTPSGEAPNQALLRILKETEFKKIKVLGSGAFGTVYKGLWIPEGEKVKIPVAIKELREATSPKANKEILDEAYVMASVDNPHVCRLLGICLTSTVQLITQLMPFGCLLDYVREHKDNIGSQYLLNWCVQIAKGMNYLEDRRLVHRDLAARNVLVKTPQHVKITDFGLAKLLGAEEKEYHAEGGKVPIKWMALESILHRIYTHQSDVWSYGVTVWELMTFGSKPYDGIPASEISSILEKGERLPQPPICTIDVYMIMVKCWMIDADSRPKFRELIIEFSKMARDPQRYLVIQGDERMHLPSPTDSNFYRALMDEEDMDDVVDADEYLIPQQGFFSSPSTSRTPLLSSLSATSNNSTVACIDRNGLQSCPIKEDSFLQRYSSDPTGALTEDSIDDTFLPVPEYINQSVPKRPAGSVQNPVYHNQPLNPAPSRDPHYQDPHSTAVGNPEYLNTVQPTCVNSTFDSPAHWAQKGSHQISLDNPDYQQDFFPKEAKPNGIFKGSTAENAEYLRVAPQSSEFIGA

In the case of `CN(C)C/C=C/C(=O)Nc1cc2c(Nc3ccc(F)c(Cl)c3)ncnc2cc1O[C@H]1CCOC1` [SHR141219 (BIBW-2992)], the “ORR evaluated through IRC” value ([1]; 23 patients with Exon 20 ins, 95% CI: 1.1%-28%) is given as 8.7%, the “median PFS” value ([1]; patients with Exon 20 ins, 95% CI: 1.8-4.2 months) is given as 2.7 months and the “median OS” value ([1]; patients with Exon 20 ins, 95% CI: 4.1-14.2 months) is given as 9.2 months.

With `CCOc1cc2ncc(C#N)c(Nc3ccc(OCc4ccccn4)c(Cl)c3)c2cc1NC(=O)/C=C/[C@H]1CCCN1C` [Compound A, (E)-N-[4-[[3-chloro-4-(2-pyridylmethoxy)phenyl]amino]-3-cyano-7-ethoxy-6-quinolyl]-3-[(2R)-1-methylpyrrolidin-2-yl]prop-2-enamide] the “inhibitory effect on the enzymatic activity of recombinant human wild type EGFR and the mutated type with inserted mutation in exon 20 (in words)” value (EGFR WT) was “strong inhibitory effect”.

In the case of `C#Cc1cccc(Nc2ncnc3cc(OCCOC)c(OCCOC)cc23)c1` [erlotinib], the “partial remission (PR) rate” value ([2]; 3 of the 11 patients with Exon 20 ins) is listed as 27% and the “median TTP” value ([2]; patients with Exon 20 ins who received erlotinib) is listed as 3 months.
